Where a name gives a salt, the structure may show the parent alone. Read-outs that look alike come from different tables or passages of the source.
Columns and labels:
OC43 = assay: Drug screening: OC43 nucleoprotein staining in infected A549-mRuby cells; type: cell-based, human beta coronavirus OC43; settings: for activity at 10 µM: Betacoronavirus 1, OC43, 96 h
Outline: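 A549 cells expressing H2B-mRuby infected with OC43 at MOI 0.3 for 1 h at 33° C, then drugs added at 10 μM final and incubated 4 days at 33° C. Viral nucleoprotein immunostained and imaged; intensity normalized to cell number and no-drug controls (=100). Hits reduced staining >3 SD in both repeats without toxicity.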

A549-mRuby cells = assay: Drug screening: effect on cell growth (cell number day 4 / day 0); settings: 10 μM drug; for Growth_1: number of cells at day 4 divided by number of cells at day 0 / toxic_1: repeat #1; for Growth_2: number of cells at day 4 divided by number of cells at day 0 / toxic_2: repeat #2
Outline: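 A549 cells carrying an H2B-mRuby reporter were infected with OC43 at MOI 0.3 for 1 h at 33° C, then given drug at 10 μM final. Cell numbers were counted by imaging at day 0 and again at day 4 after 4 days at 33° C, 5% CO2, with the screen run twice.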

[1] = 10 μM drug, MOI 0.3, 4 days, OC43 staining normalized to no-drug controls, mean of the two screen repeats
[2] = 10 μM drug, MOI 0.3, 4 days, normalized to no-drug controls in the same plate, repeat #1
[3] = 10 μM drug, MOI 0.3, 4 days, normalized to no-drug controls in the same plate, repeat #2
[4] = 10 μM drug, MOI 0.3, 4 days, OC43 staining normalized to no-drug controls, mean of the two screen repeats, read-out: OC43_mean
[5] = 10 μM drug, MOI 0.3, 4 days, normalized to no-drug controls in the same plate, repeat #1, read-out: OC43_1: % staining of OC43 in screen repeat #1
[6] = 10 μM drug, MOI 0.3, 4 days, normalized to no-drug controls in the same plate, repeat #2, read-out: OC43_2: % staining of OC43 in screen repeat #2
[7] = read-out: OC43_1: % staining of OC43 in screen repeat #1
[8] = read-out: OC43_2: % staining of OC43 in screen repeat #2

Row | Molecule | OC43_mean (OC43; [1]) | OC43_1: % staining of OC43 in screen repeat #1 (OC43; [2]) | OC43_2: % staining of OC43 in screen repeat #2 (OC43; [3]) | hit_1 (OC43; 10 μM drug, repeat #1) | hit_2 (OC43; 10 μM drug, repeat #2) | Growth_1: number of cells at day 4 divided by number of cells at day 0 (A549-mRuby cells) | toxic_1 (A549-mRuby cells) | Growth_2: number of cells at day 4 divided by number of cells at day 0 (A549-mRuby cells) | toxic_2 (A549-mRuby cells) | activity at 10 µM (OC43; [4]) | activity at 10 µM (OC43; [5]) | activity at 10 µM (OC43; [6]) | hit_1 (OC43) | hit_2 (OC43) | activity at 10 µM (OC43; [7]) | activity at 10 µM (OC43; [8]) | activity at 10 µM (OC43; read-out: OC43_mean) | OC43_mean (OC43)
1 | CN1CCN(CCCN2c3ccccc3Sc3ccc(C(F)(F)F)cc32)CC1.Cl.Cl [Trifluoperazine 2HCl] | 31.6% | 33.8% | 29.5% | 1 | 1 | 2.3 | 0 | 2.1 | 0 | – | – | – | – | – | – | – | – | –
2 | CC[C@H]1OC(=O)[C@H](C)[C@@H](O[C@H]2C[C@@](C)(OC)[C@@H](O)[C@H](C)O2)[C@H](C)[C@@H](O[C@@H]2O[C@H](C)C[C@H](N(C)C)[C@H]2O)[C@](C)(O)C[C@@H](C)C(=O)[C@H](C)[C@@H](O)[C@]1(C)O.N#CS [Erythromycin thiocyanate] | 58.7% | 50.6% | 66.8% | 1 | 1 | 4.1 | 0 | 4.6 | 0 | – | – | – | – | – | – | – | – | –
3 | CNCCCN1c2ccccc2CCc2ccccc21 [Desipramine Hydrochloride] | – | – | – | 1 | 1 | 4.4 | 0 | 3.9 | 0 | 21.8% | 20% | 23.7% | – | – | – | – | – | –
4 | CN1CCN(CCOc2cc(OC3CCOCC3)c3c(Nc4c(Cl)ccc5c4OCO5)ncnc3c2)CC1 [Saracatinib (AZD0530), Saracatinib] | – | – | – | 1 | 1 | 3.1 | 0 | 4.0 | 0 | 22.7% | 21.2% | 24.1% | – | – | – | – | – | –
5 | CC(C)c1nc(CN(C)C(=O)N[C@@H](CCN2CCOCC2)C(=O)N[C@H](CC[C@H](Cc2ccccc2)NC(=O)OCc2cncs2)Cc2ccccc2)cs1 [Cobicistat (GS-9350), Cobicistat] | – | – | – | 1 | 1 | 4.9 | 0 | 5.3 | 0 | 21.8% | 23% | 20.7% | – | – | – | – | – | –
6 | CCCOC(C(=O)OC1CCN(C)CC1)(c1ccccc1)c1ccccc1 [Propiverine hydrochloride] | – | – | – | 1 | 1 | 3.0 | 0 | 2.2 | 0 | 27.3% | 29.5% | 25.2% | – | – | – | – | – | –
7 | Cc1ccccc1C(OCCN(C)C)c1ccccc1 (stereo not drawn) [Orphenadrine Hydrochloride] | – | – | – | 1 | 1 | 4.6 | 0 | 5.1 | 0 | 37.6% | 11.7% | 63.6% | – | – | – | – | – | –
8 | COc1ccc(NC(=O)c2ccc(C(=N)N(C)C)cc2)c(C(=O)Nc2ccc(Cl)cn2)c1 [Betrixaban] | 32.0% | 30.2% | 33.7% | 1 | 1 | 5.3 | 0 | 5.5 | 0 | – | – | – | – | – | – | – | – | –
9 | CN(C)CCC=C1c2ccccc2CCc2ccccc21 [Amitriptyline HCl] | – | – | – | 1 | 1 | 3.7 | 0 | 4.1 | 0 | 22.8% | 11.2% | 34.3% | – | – | – | – | – | –
10 | COc1cc2c(cc1OC)CN(CCc1ccc(NC(=O)c3cccc4c(=O)c5cccc(OC)c5[nH]c34)cc1)CC2 [Elacridar (GF120918), Elacridar] | – | – | – | 1 | 1 | 4.6 | 0 | 5.8 | 0 | 31.4% | 24.4% | 38.3% | – | – | – | – | – | –
11 | OCCOCCN1CCN(C2=Nc3ccccc3Sc3ccccc32)CC1 [Quetiapine Fumarate] | – | – | – | – | – | 3.6 | 0 | 3.7 | 0 | – | – | – | 1 | 1 | 34.5% | 61.5% | 48% | –
12 | Cc1cc(C(C)(C)C)cc(C)c1CC1=NCCN1 [Xylometazoline HCl] | – | – | – | 1 | 1 | 5.4 | 0 | 5.7 | 0 | 49.7% | 54% | 45.4% | – | – | – | – | – | –
13 | CC1(C)O[C@@H]2C[C@H]3[C@@H]4C[C@H](F)C5=CC(=O)C=C[C@]5(C)[C@@]4(F)[C@@H](O)C[C@]3(C)[C@]2(C(=O)CO)O1 [Fluocinolone Acetonide] | – | – | – | 1 | 1 | 3.5 | 0 | 4.0 | 0 | 45.5% | 38.9% | 52.2% | – | – | – | – | – | –
14 | CC[C@H]1OC(=O)[C@H](C)[C@@H](O[C@H]2C[C@@](C)(OC)[C@@H](O)[C@H](C)O2)[C@H](C)[C@@H](O[C@@H]2O[C@H](C)C[C@H](N(C)C)[C@H]2O)[C@](C)(O)C[C@@H](C)/C(=N\OCOCCOC)[C@H](C)[C@@H](O)[C@]1(C)O [Roxithromycin] | – | – | – | 1 | 1 | 5.2 | 0 | 5.6 | 0 | 41.4% | 55.8% | 27.1% | – | – | – | – | – | –
15 | COc1cccc(CCc2ccccc2OCC(CN(C)C)OC(=O)CCC(=O)O)c1 (stereo not drawn) [Sarpogrelate hydrochloride] | – | – | – | 1 | 1 | 5.0 | 0 | 5.4 | 0 | 25.9% | 26.8% | 24.9% | – | – | – | – | – | –
16 | CN[C@H]1C(=O)N[C@@H]2Cc3ccc(cc3)Oc3cc4cc(c3O[C@@H]3O[C@H](C(=O)O)[C@@H](O)[C@H](O)[C@H]3NC(=O)CCCCCCCCC(C)C)Oc3ccc(cc3Cl)[C@@H](O)[C@@H]3NC(=O)[C@H](NC(=O)[C@@H]4NC(=O)[C@@H](NC2=O)c2cc(cc(O)c2Cl)Oc2cc1ccc2O)c1ccc(O)c(c1)-c1c(O[C@H]2O[C@H](CO)[C@@H](O)[C@H](O)[C@@H]2O)cc(O)cc1[C@@H](C(=O)NCCCN(C)C)NC3=O [Dalbavancin] | – | – | – | 1 | 1 | 5.8 | 0 | 6.2 | 0 | – | – | – | – | – | 25.7% | 39.2% | 32.5% | –
17 | O=C(Nc1ccccc1)OCC(CN1CCCCC1)OC(=O)Nc1ccccc1 (stereo not drawn) [Diperodon HCl] | – | – | – | 1 | 1 | 4.6 | 0 | 4.4 | 0 | 42.9% | 24.2% | 61.6% | – | – | – | – | – | –
18 | CN(C)CCC=C1c2ccccc2C=Cc2ccccc21 [Cyclobenzaprine HCl] | – | – | – | 1 | 1 | 3.3 | 0 | 2.1 | 0 | 46.5% | 45.2% | 47.7% | – | – | – | – | – | –
19 | Dimemorfan phosphate | – | 39.7% | 26.2% | 1 | 1 | 6.0 | 0 | 5.4 | 0 | – | – | – | – | – | – | – | – | 33.0%
